The record followed here is patent publication US20130079345A1, “[…] ACTIVE DISUBSTITUTED TRIAZINE DERIVATIVES” (BAYER INTELLECTUAL PROPERTY GMBH, priority 2010, published 2013).

One may read the IC50 as the concentration needed to halve the response being measured.

Molecules are shown by their SMILES. Bounds are passed on as bounds.

One assay addresses T1, CDK2/CycE (Homo sapiens, UniProt P24941).
T1 construct: GST; purchased ProQinase GmbH (Freiburg, Germany); host or cells: insect cells (Sf-9)
Description: CDK2/CycE kinase assay (TR-FRET). Format: biochemical. The settings on record: ATP 10 μM. An excerpt:
CDK2/CycE-inhibitory activity of compounds of the present invention was quantified employing the CDK2/CycE TR-FRET assay as described in the following paragraphs.
Recombinant fusion proteins of glutathione S-transferase (GST) and human CDK2 and of GST and human CycE, expressed in insect cells (Sf-9) and purified by glutathion-sepharose affinity chromatography, were purchased from ProQinase GmbH (Freiburg, Germany). A biotinylated peptide biotin-Ttds-[…] (C-terminus in amide form), which can be purchased from e.g the company JERINI Peptide Technologies (Berlin, Germany), was used as a substrate for the kinase reaction.
For the assay, 50 nl of a 100-fold concentrated solution of the test compound in DMSO was pipetted into a well of a black low-volume 384-well microtiter plate (Greiner Bio-One, Frickenhausen, Germany), 2 μl of a solution of CDK2/CycE in aqueous assay buffer [50 mM Tris/HCl pH 8.0], 10 mM MgCl2, 1.0 mM dithiothreitol, 0.1 mM sodium ortho-vanadate, 0.01% (v/v) Nonidet-P40 (Sigma)] were added. The mixture was incubated at 22° C. for 15 min to allow pre-binding of the test compounds to the enzyme before the start of the kinase reaction. […] The resulting mixture was incubated at 22° C. for 25 minutes. The concentration of CDK2/CycE was adjusted depending on the activity of the enzyme lot and was chosen appropriately for measurements in the linear range of the assay. Typical concentrations were in the range of 130 ng/ml. The reaction was stopped by the addition of 5 μl of a solution of TR-FRET detection reagents (0.2 μM streptavidine-XL and 1 nM anti-RB(pSer807/pSer811)-antibody from BD Pharmingen [#558389] and 1.2 nM LANCE EU-W1024 labeled anti-mouse IgG antibody [Perkin-Elmer, product no. AD0077]) in an aqueous EDTA-solution (100 mM EDTA, 0.2% (w/v) bovine serum albumin in 100 mM HEPES/NaOH, pH 7.0).
(§1) The resulting mixture was incubated at 22° C. for one hour to allow the formation of a complex between the phosphorylated biotinylated peptide and the detection reagents. Subsequently, the amount of phosphorylated substrate was evaluated by measuring the resonance energy transfer from the Eu-chelate to the streptavidine-XL. Therefore, the fluorescence emissions at 620 nm and 665 nm after excitation at 350 nm were measured in a high time-resolved fluorometry (HTRF) reader, e.g. a Rubystar (BMG Labtechnologies, Offenburg, Germany) or a Viewlux (Perkin-Elmer). The ratio of the emissions at 665 nm and at […] was taken as a measure for the amounts of phosphorylated substrate. The data were normalised, i.e. enzyme reaction without inhibitor corresponds to 0% inhibition, and all other assay components in the absence of the enzyme correspond to 100% inhibition. IC50 values were calculated by a 4-parameter fit using in-house software.
Background: TR-FRET usually uses a lanthanide donor and a delayed reading to cut background.

Another assay has as its target T2, CDK9/CycT1 (Homo sapiens, UniProt P50750).
T2 construct: Recombinant full-length His-tagged human CDK9 and CycT1; His; purchased Invitrogen PV4131; host or cells: insect cells
Description: CDK9/CycT1 kinase assay (TR-FRET). Format: biochemical. To be noted: ATP 10 μM.
Description: CDK9/CycT1-inhibitory activity of compounds of the present invention was quantified employing the CDK9/CycT1 TR-FRET assay as described in the following paragraphs.
Recombinant full-length His-tagged human CDK9 and CycT1, expressed in insect cells and purified by Ni-NTA affinity chromatography, were purchased from Invitrogen (catalogue number PV4131). A biotinylated peptide biotin-Ttds-[…] (C-terminus in amide form), which can be purchased from e.g the company JERINI Peptide Technologies (Berlin, Germany), was used as a substrate for the kinase reaction.
For the assay, 50 nl of a 100-fold concentrated solution of the test compound in DMSO was pipetted into a well of a black low-volume 384-well microtiter plate (Greiner Bio-One, Frickenhausen, Germany), 2 μl of a solution of CDK9/CycT1 in aqueous assay buffer [50 mM Tris/HCl pH 8.0], 10 mM MgCl2, 1.0 mM dithiothreitol, 0.1 mM sodium ortho-vanadate, 0.01% (v/v) Nonidet-P40 (Sigma)] were added. The mixture was incubated at 22° C. for 15 min to allow pre-binding of the test compounds to the enzyme before the start of the kinase reaction. […] The resulting mixture was incubated at 22° C. for a reaction time of 25 minutes. The concentration of CDK9/CycT1 was adjusted depending of the activity of the enzyme lot and was chosen appropriately for measurements in the linear range of the assay. Typical concentrations were in the range of 1 μg/ml. The reaction was stopped by the addition of 5 μl of a solution of TR-FRET detection reagents (0.2 μM streptavidine-XL and 1 nM anti-RB(pSer807/pSer811)-antibody from BD Pharmingen [#558389] and 1.2 nM LANCE EU-W1024 labeled anti-mouse IgG antibody [Perkin-Elmer, product no. AD0077]) in an aqueous EDTA-solution (100 mM EDTA, 0.2% (w/v) bovine serum albumin in 100 mM HEPES/NaOH, pH 7.0).
as §1, with “measurement of” for “measuring”, “HTRF” for “high time-resolved fluorometry (HTRF)”

T2 sequence (P50750 whole entry): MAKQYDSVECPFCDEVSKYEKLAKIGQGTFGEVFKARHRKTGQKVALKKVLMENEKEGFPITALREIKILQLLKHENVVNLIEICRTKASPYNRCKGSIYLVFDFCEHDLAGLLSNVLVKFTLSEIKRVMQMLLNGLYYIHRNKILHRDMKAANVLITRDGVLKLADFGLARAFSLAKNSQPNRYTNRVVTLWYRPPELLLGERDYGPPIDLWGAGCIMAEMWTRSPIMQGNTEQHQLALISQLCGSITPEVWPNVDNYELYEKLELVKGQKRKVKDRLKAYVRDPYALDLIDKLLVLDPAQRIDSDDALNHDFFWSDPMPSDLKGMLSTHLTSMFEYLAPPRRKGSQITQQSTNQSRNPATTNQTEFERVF
T2 sequence (O60563 whole entry partner): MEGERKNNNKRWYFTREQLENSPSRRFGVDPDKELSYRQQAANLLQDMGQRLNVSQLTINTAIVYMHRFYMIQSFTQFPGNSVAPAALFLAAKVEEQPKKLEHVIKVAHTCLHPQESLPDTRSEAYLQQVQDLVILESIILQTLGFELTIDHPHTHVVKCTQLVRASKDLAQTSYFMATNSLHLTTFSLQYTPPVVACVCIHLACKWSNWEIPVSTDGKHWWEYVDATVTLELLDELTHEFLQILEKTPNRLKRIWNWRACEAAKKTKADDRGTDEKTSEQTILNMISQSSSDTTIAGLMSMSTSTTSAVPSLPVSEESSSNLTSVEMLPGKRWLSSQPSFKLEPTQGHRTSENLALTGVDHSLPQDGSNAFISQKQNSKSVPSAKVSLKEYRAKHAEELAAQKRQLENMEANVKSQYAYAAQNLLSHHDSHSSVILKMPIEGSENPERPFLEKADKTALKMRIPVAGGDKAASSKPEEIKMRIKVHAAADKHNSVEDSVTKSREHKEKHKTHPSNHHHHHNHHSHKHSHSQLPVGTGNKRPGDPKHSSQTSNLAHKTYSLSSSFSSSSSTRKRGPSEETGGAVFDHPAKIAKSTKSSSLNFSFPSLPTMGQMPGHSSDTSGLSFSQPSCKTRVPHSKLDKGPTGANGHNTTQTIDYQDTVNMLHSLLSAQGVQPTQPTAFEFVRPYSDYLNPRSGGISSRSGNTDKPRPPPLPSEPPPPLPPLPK

For `COc1ccccc1-c1ncnc(Nc2cccc(S(N)(=O)=O)c2)n1` [Compound C1, 3-[(4-(2-Methoxyphenyl)-1,3,5-triazin-2-yl)amino]benzenesulfonamide], the IC50 on CDK2/CycE (values in nM) came to 450 nM; against CDK9/CycT1 (values in nM) it was 10 nM.
`NS(=O)(=O)Cc1cccc(Nc2ncnc(-c3ccc(F)cc3C(F)(F)F)n2)c1` [Compound U1, 1-[3-({4-[4-fluoro-2-(trifluoromethyl)phenyl]-1,3,5-triazin-2-yl}amino)phenyl]methanesulfonamide]: the IC50 at CDK2/CycE (values given in μM) and on CDK9/CycT1 (values given in μM) was 15000 nM throughout.
With `CC(=O)Nc1cc(F)ccc1-c1ncnc(Nc2cccc(CS(N)(=O)=O)c2)n1` [Compound U4, N-[5-fluoro-2-(4-{[3-(sulfamoylmethyl)phenyl]amino}-1,3,5-triazin-2-yl)phenyl]acetamide], the figures for the IC50 at CDK2/CycE (values given in μM) and against CDK9/CycT1 (values given in μM) were 3000 nM and 3600 nM, respectively.
On to `NS(=O)(=O)Cc1cccc(Nc2ncnc(-c3ccc(F)cc3OCC3CC3)n2)c1` [Compound U5, 1-[3-({4-[2-(cyclopropylmethoxy)-4-fluorophenyl]-1,3,5-triazin-2-yl}amino)phenyl]methanesulfonamide], for which the values for the IC50 at CDK2/CycE (values given in μM) and against CDK9/CycT1 (values in nM) were 1600 nM and 34 nM, respectively.
In the same order, the values of `COc1c(-c2ncnc(Nc3cccc(CS(N)(=O)=O)c3)n2)ccc(F)c1F` [Compound U6, 1-(3-{[4-(3,4-difluoro-2-methoxyphenyl)-1,3,5-triazin-2-yl]amino}phenyl)methanesulfonamide] are 12000 nM and 370 nM.
Consider `Cc1ccc(Cl)cc1-c1ncnc(Nc2ccc(Cl)cc2)n1` [Ref3, [6-(5-Chloro-2-methyl-phenyl)-[1,3,5]triazin-4-yl]-(4-chloro-phenyl)-amine, reference compound], for which the IC50 against CDK2/CycE (values given in μM) and at CDK9/CycT1 (values given in μM) was more than 20000 nM throughout.
As for `NC(=O)c1ccc(Nc2ncnc(-c3ccccc3NC(=O)c3ccccc3)n2)cc1` [Ref5, 4-[4-(2-Benzoylaminophenyl)-[1,3,5]triazin-2-ylamino]benzamide, reference compound], the IC50 on CDK2/CycE (values given in μM) was 14000 nM; against CDK9/CycT1 (values given in μM), 8400 nM.
